Test results taken from US7393937B2, “N-acetylglucosamine derivatives and use thereof” (Kao Corporation, priority 2002, dated 2008).

Key:
cultured epidermal cells = details: 5 mmol/L; independently from cell proliferation; cited from earlier work
[1] = tested on: Normal human epidermal cells; experiment: Test Example 2: hyaluronic acid production promotion in normal human epidermal cells; assay type: cell-based; details: 48-hour culture, FIG. 3
Excerpt: Normal human epidermal cells (manufactured by Kurabo Industries Ltd.) were inoculated into 24-well plates and cultured in a culture medium for proliferation to the confluent density, and then 2-acetamido-1,3,4,6-tetra-O-acetyl-2-deoxy-β-D-glucopyranoside represented by formula (17) to a final concentration of 100 μmol/L, N-acetylglucosamine derivative obtained in Production Example 9 at a final concentration of 1 mmol/L, and N-acetylglucosamine derivatives obtained in Production Examples 10 to 12 at a final concentration of 100 mmol/L were added. After 48-hour culture from the addition, the amount of hyaluronic acid released into the culture medium was measured. The measurement of the hyaluronic acid was carried out by using a commercially available hyaluronic acid measurement kit (manufactured by Chugai Pharmaceutical Co., Ltd.).

[2] = 100 mmol/L (so in the source), 1/10 concentration of N-acetylglucosamine

| Compound | hyaluronic acid production-promoting effect compared with N-acetylglucosamine [1, 2] | further results |
| --- | --- | --- |
| CC(=O)N[C@H]1C(O)O[C@H](CO)[C@@H](O)[C@@H]1O (stereo partly drawn) [N-acetylglucosamine] | – | promotion of hyaluronic acid production (cultured epidermal cells): about 1.5 times |
| CCOC1OC(COC(C)=O)C(OC(C)=O)C(OC(C)=O)C1NC(C)=O [Production Example 9, ethyl(2-acetamido-3,4,6-tri-O-acetyl-2-deoxy)β-D-glucopyranoside] | – | hyaluronic acid production-promoting effect compared with N-acetylglucosamine ([1]; 1 mmol/L (same concentration as N-acetylglucosamine)): 6.5 times |
| CCCCCOC1OC(COC(C)=O)C(OC(C)=O)C(OC(C)=O)C1NC(C)=O [Production Example 10, pentyl(2-acetamido-3,4,6-tri-O-acetyl-2-deoxy)β-D-glucopyranoside] | 3.8 times | – |
| CCCCCCCCOC1OC(COC(C)=O)C(OC(C)=O)C(OC(C)=O)C1NC(C)=O [Production Example 11, octyl(2-acetamido-3,4,6-tri-O-acetyl-2-deoxy)β-D-glucopyranoside] | 2.8 times | – |
| CC(=O)NC1C(OC/C=C(\C)CCC=C(C)C)OC(COC(C)=O)C(OC(C)=O)C1OC(C)=O [Production Example 12, geranyl(2-acetamido-3,4,6-tri-O-acetyl-2-deoxy)β-D-glucopyranoside] | 3.7 times | – |
| CC(=O)NC1C(OC(C)=O)OC(COC(C)=O)C(OC(C)=O)C1OC(C)=O [formula (17), 2-acetamido-1,3,4,6-tetra-O-acetyl-2-deoxy-β-D-glucopyranoside] | – | hyaluronic acid production-promoting effect compared with N-acetylglucosamine ([1]; 100 μmol/L (1/10 concentration of N-acetylglucosamine)): 3.0 times |
